Measurements as given in patent publication US7745450B2, “Pyrazolo[4,3-d]pyrimidines, processes for their preparation and methods for therapy” (Institute of Experimental Botany, priority 2002, dated 2010).
Like-named read-outs stand apart in the source and are kept apart here.

Legend:
Format in all cases: cell-based, human
[1] = tested on: PHA-stimulated lymphocytes (PBMC); test: Proliferation of PHA-stimulated lymphocytes (PBMC), flow cytometric cell count; conditions: 96 hours, IL-2
Protocol: Peripheral blood mononuclear cells (PBMC): Human peripheral blood mononuclear cells were isolated by density gradient (Ficoll-Hypaque) (LSM, ICN Biomedicals Inc.). PBMC were stimulated with 5 μg/ml phytohemaglutinin A (PHA) (Sigma) during 24-48 hours in IMDM supplemented with 10% FCS at 37° C. After washing off the PHA, PBMC were incubated with interleukin-2 (IL-2) (10 U/ml) (Genzyme).
Cells were plated at 10000 per well in 200 μl IMDM medium and incubated with 0-50 μM of the novel compounds (Tab 8), by addition of drug directly to the culture medium and incubated at 37° C. for 96 hours (Tab 8). Absolute cell number was determined by addition of a known concentration Fluoresbrite microspheres (FITC) (Polysciences, Inc.). The absolute number of cells/well was calculated as: {(total number of beads added/well)/(number of beads measured)×(number of measured cells in the gate of interest)}. All analyses were performed with a FACScan (BD), using CELLQuest software (Becton Dickinson).
PHA-stimulated lymphocytes (PBMC) were tested for their cytotoxicity as one of the normal counterparts of the cell lines. Cells were grown for 96 hours in the presence of IL-2 and different concentrations of the novel compounds and cell number was counted on the flow cytometer.

[2] = tested on: CD34+CD38+ hematopoietic progenitors from adult bone marrow; test: Myeloid colony-forming unit (CFU) assay; conditions: for IC50: 14 days; for Colony output for CFU-E, CFU-G and CFU-M (output of the different types of myeloid colonies): scored differentially
Source text: Adult Bone Marrow Cells (ABM): Bone marrow samples were obtained by sternal puncture from hematologically normal donors undergoing cardiac surgery, after obtaining informed consent according to the ethical regulations of the University of Antwerp. Cells were collected in IMDM supplemented with 10% FCS and 100 U/ml heparin and separated by density gradient as mentioned for PBMC. After washing, cells were resuspended in IMDM 10% FCS and were sorted on a FACStar (Becton Dickinson, Erembodegem, Belgium). Cell sorting: ABM cells (10^7 cells/ml) were incubated with 43A1 hybridoma supernatant at a 1/10 dilution for 20 minutes at 4° C. The supernatant of the 43A1 hybridoma (immunoglobulin IgG3) was kindly donated by Dr. […] (University of Tübingen, Germany) and was used as a source of anti-CD34 antibodies. After washing twice in IMDM, the cells were incubated with FITC-conjugated rabbit anti-mouse IgG (1/40 dilution) for 20 min at 4° C. […] After washing twice in IMDM, the cells were sorted on a FACStarPlus cell sorter equipped with an water-cooled argon ion laser (INNOVA Enterprise Ion Laser) with multiple wave length outputs including UV (488 nm). Cells with low-to-medium forward and low side scatter, highly positive green (CD34) fluorescence, and an orange (CD38) fluorescence signal lower than the mean fluorescence of cells labeled with an irrelevant isotype-matched control antibody were retained as CD34^+CD38^- cells; cells with an orange fluorescence above this threshold were retained as CD34^+CD38^+ cells. Myeloid Colony-forming unit (CFU) assays: Direct myeloid colony formation of CD34^+CD38^+ cells was assessed in a CFU assay. These assays were initiated with 500 cells per well and plated in duplicate in methylcellulose (0.9%) supplemented with 20% FCS, 1% bovine serum albumin (BSA), 10^-5 M mercaptoethanol and 10 vol. % 5637 conditioned medium of the 5637 bladder carcinoma cell line (containing G-CSF and GM-CSF), 2 U/ml erythropoietin and 30 U/ml interleukine-3 (IL-3). […] The following colony types were scored: myeloid colonies: macrophage (CFU-M), granulocyte (CFU-G), and granulocyte-macrophage (CFU-GM); erythroid colonies (BFU-E (burst-forming units, erythroid) and CFU-E); and mixed erythroid-myeloid colonies (CFU-Mix). CD34^+CD38^+ hematopoietic progenitors (HPC) from adult bone marrow were isolated and investigated for response to novel compounds. CD34^+CD38^+ cells were grown in a methylcellulose system in the presence of increasing concentrations of compounds.

[3] = tested on: adult bone marrow CD34+CD38− cells; test: Pre-CFU assay; conditions: for IC50: 14-day liquid culture, secondary methylcellulose culture
Source text: Adult Bone Marrow Cells (ABM): Bone marrow samples were obtained by sternal puncture from hematologically normal donors undergoing cardiac surgery, after obtaining informed consent according to the ethical regulations of the University of Antwerp. Cells were collected in IMDM supplemented with 10% FCS and 100 U/ml heparin and separated by density gradient as mentioned for PBMC. After washing, cells were resuspended in IMDM 10% FCS and were sorted on a FACStar (Becton Dickinson, Erembodegem, Belgium).
Cell sorting: ABM cells (10^7 cells/ml) were incubated with 43A1 hybridoma supernatant at a 1/10 dilution for 20 minutes at 4° C. The supernatant of the 43A1 hybridoma (immunoglobulin IgG3) was kindly donated by Dr. H. J. Bühring (University of Tübingen, Germany) and was used as a source of anti-CD34 antibodies. After washing twice in IMDM, the cells were incubated with FITC-conjugated rabbit anti-mouse IgG (1/40 dilution) for 20 min at 4° C. After washing twice cells were incubated for 10 minutes with 5 μg mouse Ig and for 15 minutes with anti-CD38-PE (20 μl/10^6 cells). After washing twice in IMDM, the cells were sorted on a FACStarPlus cell sorter equipped with an water-cooled argon ion laser (INNOVA Enterprise Ion Laser) with multiple wave length outputs including UV (488 nm). Cells with low-to-medium forward and low side scatter, highly positive green (CD34) fluorescence, and an orange (CD38) fluorescence signal lower than the mean fluorescence of cells labeled with an irrelevant isotype-matched control antibody were retained as CD34^+CD38^− cells; cells with an orange fluorescence above this threshold were retained as CD34^+CD38^+ cells.
Pre-CFU: Pre-CFU assays were initiated by performing liquid cultures of CD34^+CD38^− in duplicate in 96-well flat-bottomed plates in IMDM/10% FCS, 1% bovine serum albumin (BSA), and different combinations of the following cytokines: 100 U/ml IL-1, 200 U/ml IL-6, 30 U/ml IL-3 and 100 ng/ml stel cell factor (SCF). Pre-CFU cultures were initiated with 500 CD34^+CD38^− cells/well (200 μl). After 14 days of culture at 37° C. in 7.5% O2 and 5% CO2 in a fully humidified incubator, the number of cells in each well was counted. Following this the cells were harvested, washed three times in IMDM/10% FCS, and plated in duplicate at 500 cells/well (1000 μl) in secondary methylcellulose CFU cultures as described for CFU assays.
Pre-CFU were cultured starting from adult bone marrow CD34^+CD38^− cells, that had been isolated using the FCM cell sorter. Novel compounds were added at different concentrations to the primary 14-day liquid culture. IC50 was calculated from dose-response curves from total clonogenic output after secondary methylcellulose culture (Tab. 8).

[4] = total colony output, read-out: CFU IC50

Molecule	IC50 [1]	IC50 [2, 4]	Colony output for CFU-E, CFU-G and CFU-M (output of the different types of myeloid colonies) [2]	IC50 [3]	Activity on pre-CFU compared with CFU [3]	IC50 ([1]; Homo sapiens, Lymphocyte)	IC50 ([2]; Homo sapiens, 336 h, methylcellulose, read-out: IC50 on CD34+CD38+ hematopoietic progenitors)	IC50 ([2]; Homo sapiens, 336 h, total colony output, read-out: CFU IC50)	IC50 ([3]; Homo sapiens, 336 h)
5-(3-aminoethylamino)-7-(3,4-dihydroxybenzyl)amino-3-isopropylpyrazolo[4,3-d]pyrimidine [Compound 201]	8 ± 2.2 µM	4.5 µM	significantly lower colony output	1.5 µM	–	–	–	–	–
5-(3-aminopropylamino)-7-benzylamino-3-isopropylpyrazolo[4,3-d]pyrimidine [Compound 17]	4 ± 0.2 µM	17 µM	significantly lower colony output	10 µM	–	–	–	–	–
5-(3-hydroxypropylamino)-7-[(R,S)-(1-phenyl-2-hydroxyethyl)amino-3-isopropylpyrazolo[4,3-d]pyrimidine [Compound 172]	4 ± 0.5 µM	> 20 µM	significantly lower colony output	> 25 µM	–	–	–	–	–
5-(methylthio)-7-[N-(3,4-dihydroxybenzyl-N-methyl]amino-3 isopropylpyrazolo[4,3-d]pyrimidine [Compound 26]	16.5 ± 0.8 µM	> 50 µM	no significant difference	86 µM	more active on pre-CFU than on CFU	–	–	–	–
CCCCCCNc1nc(NC(CO)c2ccccc2)c2[nH]nc(C(C)C)c2n1 (stereo not drawn) [Compound 98, 5-(hexylamino)-7-(1-phenyl-2-hydroxyethylamino)-3-isopropylpyrazolo[4,3-d]pyrimidine]	–	–	–	–	–	18 ± 1 µM	> 50 µM	5.4 ± 0.4 µM	> 25 µM
